In US20260274810A1, “NOVEL MITOFUSIN INHIBITORS” (ALBERT EINSTEIN COLLEGE OF MEDICINE, priority 2023, published 2026):

Assays:
[1] = tested on: U2OS cells; assay: Mitochondrial fusion in U2OS cells; assay type: cell-based
Description: Measurement of mitochondrial aspect ratio (Mito AR). Images that depict stained mitochondria with mitotracker green were analyzed using FIJI We measured for each mitochondrion its length and width. Then, we divided the length by the width for each mitochondrion to get its mitochondrial aspect ratio. >200 mitochondria were measured per treatment.

[2] = tested on: Tomm20, mitotracker green, mtDNA/nDNA, mitochondrial biogenesis markers; assay: Mitochondrial biomass and biogenesis markers; assay type: cell-based
Description: Western blot. Western blots were performed from whole cell lysates (WCL) prepared in lysis buffer containing 50 mM Tris-HCl pH 7.5, 1% Triton X-100, 150 mM NaCl, 5 mM MgCl2, 1 mM EGTA and 10% glycerol in the presence of protease inhibitor cocktail (Roche). WCL were separated on a 4-12% NuPAGE MES gel (Invitrogen), transferred into a PVDF membrane, block for 1 hr and immunoblot with the corresponding anti-bodies.
Analysis of mitochondrial biogenesis-related genes by q-PCR. Total RNA was extracted by using RNeasy Mini Kit (Qiagen) followed by cDNA synthesis using the SuperScript IV VILO Master Mix (Thermo Scientific), both performed according to the manufacturer's protocol. q-PCR was performed using the following primers: […]
For the q-PCR reaction, Power SYBR Green master mix (Thermo Scientific) was used according to the manufacturer's instructions. Briefly, each reaction consisted of 10 ng cDNA, 5 μL Power SYBR Green master mix, 200 nM primers (forward and reverse), and RNase-free water up to 10 μL. q-PCR was performed on the ViiA 7 Real-Time PCR System (Thermo Scientific) with the following cycle parameter: 95° C. for 10 min, 40 cycles of 95° C. for 15 s, and 60° C. for 1 min. q-PCR products were analyzed by melting curves for unspecific products or primer dimer formation. Rpi39 was used as housekeeping gene and 2^−ΔΔCT method was applied to determine the relative mRNAs expression. […]

[3] = tested on: MEFs; assay: Mitochondrial membrane potential (TMRE); assay type: cell-based, mouse
Description: Mitochondrial depolarization assay (mtΔΨ). MEFs (10^4 cells/well) were seeded in a 96-well black plate and treated with MASM7 or MFI8 for 6 hrs. Following treatments, cells were stained with 250 nM TMRE (Sigma; Cat. 87917) for 20 min at 37° C. Subsequently, cells were washed with thrice with PBS. Fluorescence intensity was detected by a M100 microplate reader (TECAN, Ex: 540 nm/Em: 579 nm).

[4] = tested on: cells; assay: Cell death assay (Annexin V / PI); assay type: cell-based
Description: Cell death assay. Cells (2×10^5 cells/well) were seeded in a 6-well plate and treated with the indicated drugs for 6 hours. Cells were dissociated using Accutase (Thermo Fisher; Cat. #00-4555-56) in order to avoid accidental exposure of phosphatidylserine on the outer plasma membrane. Cell death was evaluated with Dead Cell Apoptosis Kit with Annexin V Alexa Fluor™ 488 & Propidium Iodide (Thermo Fisher; Cat. #V13241) according to manufacturer's protocol. Data was acquired by BD LSRII flow cytometer system using BD FACSDiva software. Data was analyzed by FlowJo (BD).

[5] = tested on: cells; assay: Cell viability assay (CellTiter-Glo); assay type: cell-based; settings: 72 hours
Description: Cell viability assay. Cells (5×10^3 cells/well) were seeded in a 96-well white plate and treated with serial dilutions of MASM7 or MFI8. Cell viability was assayed after 72 hrs by addition of CellTiter-Glo reagent according to the manufacturer's protocol (Promega). Luminescence was measured using a F200 PRO microplate reader (TECAN). Viability assays were performed in at least triplicate and the data normalized to vehicle-treated control wells. Dilutions of MASM7 or MFI8 were performed using a TECAN D300e Digital Dispenser from 10 mM stocks.

[6] = tested on: U2OS cells; assay: Minority MOMP imaging; assay type: cell-based; settings: U2OS cells expressing CytoGFP and MitoCherry, 3 h
Description: Minority MOMP. U2OS cells (100,000) were seeded onto glass coverslips and transfected with 250 ng each of CytoGFP and Mito-mCherry as previously described 39. 16 h after transfection, cells were treated with compounds for 3 h and then fixed in 4% paraformaldehyde. Cells were imaged on a Zeiss LSM880 with Airyscan using a 63×1.4 NA objective. Subsequent to acquisition, images were processed using the Airyscan processing function in ZEN software. Minority MOMP was quantified by manually scoring the co-localisation of CytoGFP and mito-mCherry.

[7] = tested on: MEFs; assay: DNA damage, γH2AX immunofluorescence; assay type: cell-based, mouse
Description: Immunofluorescent analysis and microscopy. Cells were treated with MASM7, MFI8 and or Q-VD-OPh at ~70% confluence for 6 h. After treatments, cells were washed with PBS and fixed with 4% PFA for 15 min. Then cells were permeabilized with 0.1% Triton X-100 in PBS for 10 min. Cells were blocked with 5% BSA in PBS-T and incubated overnight with primary antibodies as indicated; γH2AX (Sigma; 05-636, 1:100 dilution). After incubation with primary antibodies, cells were washed with PBS and incubated with the appropriate mouse secondary antibody (ThermoFisher Scientific; A-11001) in the blocking solution. After PBS washes, coverslips were dipped in water and mounted on glass slides using Vectashield containing DAPI (Vector laboratories). Images were taken with Leica SP5 inverted confocal microscope. Data were analyzed with ImageJ.

[8] = tested on: MEFs; assay: Mitochondrial aspect ratio (Mito AR), live cell imaging
Description: Live cell imaging. MEFs were seeded on chamber slides (MatTek Corporation: 35 mm dishes, No. 1.5, 14 mm glass diameter) at ~70% confluence. […] Images were taken with Leica SP5 inverted confocal microscope. Data were analyzed with Image J software. >200 mitochondria were measured per condition in mitochondrial aspect ratio.
MEFs were seeded on chamber slides (MatTek Corporation: 35 mm dishes, No. 1.5, 14 mm glass diameter) at ~70% confluence. Cells were treated with compounds. Then, cells were stained with MitoTracker Green (200 nM, Invitrogen) for 20 min at 37° C. After treatments, media was replaced with FluoroBrite™ DMEM (Invitrogen) supplemented with 10% FBS, 100 U ml^−1 penicillin/streptomycin, 2 mM L-glutamine and compound prior image acquisition. Images were taken with Leica SP5 inverted confocal microscope. Data were analyzed with Image J software. >200 mitochondria were measured per condition in mitochondrial aspect ratio. Measurement of mitochondrial aspect ratio (Mito AR). Images that depict stained mitochondria with mitotracker green were analyzed using FIJI software. Each mitochondrion was measured for its length and width. Then, the length was divided by the width for each mitochondrion to get its mitochondrial aspect ratio. >200 mitochondria were measured per treatment.

[9] = MFN1/MFN2 DKO MEFs reconstituted with WT MFN2

Cc1cccc(NC(C)c2cc(Cl)ccc2O)c1C (centres unmarked) [MFI8]
mitochondrial fusion [1]: inhibited mitochondrial fusion in U2OS cells
gene expression levels of mitochondrial biogenesis markers [2]: no alteration
Tomm20 protein levels, mitotracker green intensity and mitochondrial to nuclear DNA ratio ([2]; mitochondrial biomass): neither MASM7 nor MFI8 altered
mitochondrial membrane potential [3, 9]: significantly decreased mitochondrial membrane potential
mitochondrial membrane potential ([3]; WT MEFs, 6 hrs): concentration responsively decreased mitochondrial membrane potential
sensitization to BV6-induced cell death ([4]; combined with BV6): potentiated the capacity of BV6 to induce cell death
sensitization to BV6-induced cell death ([4]; deletion of MFN1/2 and APAF): abolished the capacity of MFI8 to sensitize cells to BV6 treatment
percentage of dead cells ([4]; upon caspase 3/7 activation): did not increase the percentage of dead cells
cellular viability [5]: neither MFI8 nor MASM7 decreased cellular viability
MOMP [6]: induced MOMP, albeit at modest levels
γH2AX foci / DNA damage ([7]; MFN1/MFN2 DKO MEFs): not in MFN1/MFN2 DKO MEFs
γH2AX foci / DNA damage ([7]; WT MEFs, 6 h): increased γH2AX foci
mitochondrial aspect ratio [8, 9]: significantly decreased mitochondrial aspect ratio
IC50 ([8]; Mus musculus, 6 h, read-out: IC50 (decrease of Mito AR)): 4.06 µM
mitochondrial aspect ratio ([8]; co-treated with MASM7 in MEFs): reduced mitochondrial aspect ratio
mitochondrial aspect ratio ([8]; double knockout of MFN1 and MFN2): completely abolished MFI8 from reducing mitochondrial aspect ratio
mitochondrial aspect ratio ([8]; either MFN1 or MFN2 knocked out): still capable of reducing mitochondrial aspect ratio
